Measurements reported in PubChem BioAssay AID2060619 (Molecular Pharmacology Branch, DTP, NCI, 2025).
“And” between values parts separate entries of the source, which are not always exact repeats. Equal values may be shown once.

System: 323965-272-R-J2-PDC complex spheroid viability
Assay: Anticancer human tumor 323965-272-R-J2-PDC patient-derived pancreatic carcinoma cell line growth inhibition [CLK]
Details: for viability, T/C: stronger effect = lower value
Text: A high-throughput screen of multi-cell type tumor spheroids was designed to identify active combinations of […] and targeted small molecules. Complex spheroids include a stromal component modeled by human endothelial cells (HUVEC) and fibroblasts modeled by human mesenchymal stem cells (MSCs). The concentration ranges selected for each drug and investigational agent were based upon clinically achievable concentrations if the clinical Cmax of the agent was known.
Compounds. The drugs and investigational agents: cirtuvivint (SM08502; NSC835563), CC-671 (NSC850746), vemurafenib (NSC761431), tapotoclax (NSC804041), sotorasib (NSC818433), adagrasib (NSC831453), MRTX-1133 (NSC836407), BAY2416964 (NSC825713), copanlisib (NSC816437), inavolisib (NSC800729), abemaciclib (NSC768073), osimertinib (NSC779217), entinostat (NSC756642), eltanexor (KPT-8602, NSC794443), venetoclax (NSC766270), ceralasertib (NSC777638), bortezomib (NSC756655), olaparib (NSC753686), talazoparib (NSC767125), alisertib (NSC759677), peposertib (NSC802822), gemcitabine (NSC613327), 5-fluorouracil (NSC19893), SN-38 (NSC673596), oxaliplatin (NSC266046), paclitaxel (NSC125973), and doxorubicin (NSC123127), were obtained from the National Cancer Institute (NCI) Developmental Therapeutics Program Chemical Repository. The FDA-approved anticancer drug set is available from the Developmental Therapeutics Program at https://dtp.cancer.gov/organization/dscb/obtaining/available plates.htm. […] The stock solutions were prepared in dimethyl sulfoxide (DMSO, Sigma-Aldrich, St. Louis, MO, cat. D2650), except for the platinum complexes which were prepared in saline (Quality Biological, Gaithersburg, MD, cat. 114-055-101), at 800-fold the tested concentration and stored at -70 degrees C prior to their use. All drugs and investigational agents were tested over a range starting from a high concentration at or near the clinical Cmax and decreasing in half-log increments. If the clinical Cmax for an agent had not been determined, the highest concentration tested was 10 microM.
Cell Culture. All cells were maintained in an incubator at 37 degrees C and 5% CO2 with 95% humidity. The PDC lines were cultured according to standard operating procedures established by the NCI PDMR. Briefly, all PDCs were thawed and cultured in Matrigel-coated flasks prepared with a working solution of 1X Ham's F-12 nutrient mix, without supplementation (Invitrogen, Waltham, MA, cat. 11765054), 100 U/mL penicillin-streptomycin (Invitrogen, cat. 15140122), and 2.5% Matrigel (Corning Inc., Corning, NY, cat. 354248) for the first three passages. The 947758-054-R-J2-PDC line was cultured in 6B/Colon 1A media, which includes advanced DMEM/F-12 (Thermo Fisher Scientific, cat. 12634028), 10 mM HEPES (Thermo Fisher Scientific, cat. 15630080), 1X GlutaMAX supplement (Thermo Fisher Scientific, cat. 35050061), 0.1 mg/mL primocin (InvivoGen, cat. ant-pm-2), 10% defined fetal bovine serum, heat inactivated (HyClone Laboratories Inc., cat. SH30070.03HI), 1.25 mM N-Acetyl-L-cysteine (Sigma-Aldrich, cat. A9165), 10 mM nicotinamide (Sigma-Aldrich, cat. N0636), 1X B-27 supplement (Thermo Fisher Scientific, cat. 17504044), 1X N-2 supplement (Thermo Fisher Scientific, cat. 17502048), and 10 microM Y-27632 dihydrochloride (Tocris Bioscience, cat. 1254). The 876862-298-R-J1-PDC was cultured in 6E media, which includes all 6B/Colon 1A media components plus 50% L-WRN conditioned media (ATCC, cat. CRL-3276), 50 ng/mL recombinant human EGF recombinant protein (hEGF; Thermo Fisher Scientific, cat. PHG0311), 10 ng/mL recombinant human fibroblast growth factor 10 (hGFG-10; PeproTech, cat. 100-26), 1 ng/mL recombinant human fibroblast growth factor 2 (hFGF-2; PeproTech, cat. 100-18B), and 1 µM prostaglandin E2 (PGE2; Tocris, cat. 2296). The 227483-062-R1-J1-PDC line was cultured in Panc media, containing all 6E components except hFGF-2, with the addition of 500 nM SB-431542 (Selleckchem, cat. S1067) and 10 nM gastrin (Tocris, cat. 3006). […]

[1] = curve of first compound, second compound 0.0316 µM
[2] = curve of first compound, second compound 0.1 µM
[3] = curve of first compound, second compound 0.316 µM
[4] = curve of first compound, second compound 1 µM
[5] = curve of first compound, second compound 3.16 µM
[6] = curve of first compound, second compound 10 µM
[7] = second compound 0.0316 µM, first compound 0.0316 µM
[8] = second compound 0.0316 µM, first compound 0.1 µM
[9] = second compound 0.0316 µM, first compound 0.316 µM
[10] = second compound 0.0316 µM, first compound 1 µM
[11] = second compound 0.0316 µM, first compound 3.16 µM
[12] = second compound 0.0316 µM, first compound 10 µM
[13] = second compound 0.1 µM, first compound 0.0316 µM
[14] = second compound 0.1 µM, first compound 0.1 µM
[15] = second compound 0.1 µM, first compound 0.316 µM
[16] = second compound 0.1 µM, first compound 1 µM
[17] = second compound 0.1 µM, first compound 3.16 µM
[18] = second compound 0.1 µM, first compound 10 µM
[19] = second compound 0.316 µM, first compound 0.0316 µM
[20] = second compound 0.316 µM, first compound 0.1 µM
[21] = second compound 0.316 µM, first compound 0.316 µM
[22] = second compound 0.316 µM, first compound 1 µM
[23] = second compound 0.316 µM, first compound 3.16 µM
[24] = second compound 0.316 µM, first compound 10 µM
[25] = second compound 1 µM, first compound 0.0316 µM
[26] = second compound 1 µM, first compound 0.1 µM
[27] = second compound 1 µM, first compound 0.316 µM
[28] = second compound 1 µM, first compound 1 µM
[29] = second compound 1 µM, first compound 3.16 µM
[30] = second compound 1 µM, first compound 10 µM
[31] = second compound 3.16 µM, first compound 0.0316 µM
[32] = second compound 3.16 µM, first compound 0.1 µM
[33] = second compound 3.16 µM, first compound 0.316 µM
[34] = second compound 3.16 µM, first compound 1 µM
[35] = second compound 3.16 µM, first compound 3.16 µM
[36] = second compound 3.16 µM, first compound 10 µM
[37] = second compound 10 µM, first compound 0.0316 µM
[38] = second compound 10 µM, first compound 0.1 µM
[39] = second compound 10 µM, first compound 0.316 µM
[40] = second compound 10 µM, first compound 1 µM
[41] = second compound 10 µM, first compound 3.16 µM
[42] = second compound 10 µM, first compound 10 µM
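Also: spheroids exposed to agents for seven days before readout.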
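For viability, T/C in this document: percent of DMSO vehicle control wells so 100% = untreated growth.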

## COc1cccc2c1C(=O)c1c(O)c3c(c(O)c1C2=O)CC(O)(C(=O)CO)CC3OC1CC(N)C(O)C(C)O1 (stereo unspecified) + CN1CCN(c2cc(C(=O)Nc3cc4cc(-c5cnn(C)c5)ccc4cn3)ccn2)CC1
[1]
  IC50: 117 nM
[2]
  IC50: < 31.6 nM
[3]
  IC50: < 31.6 nM
[4]
  IC50: < 31.6 nM
[5]
  IC50: < 31.6 nM
[6]
  IC50: < 31.6 nM
[7]
  viability, T/C: 67.8%
[8]
  viability, T/C: 40.7%
[9]
  viability, T/C: 39.4%
[10]
  viability, T/C: 34.8%
[11]
  viability, T/C: 25.3%
[12]
  viability, T/C: 1.54%
[13]
  viability, T/C: 54.4%
[14]
  viability, T/C: 31.6%
[15]
  viability, T/C: 29.3%
[16]
  viability, T/C: 28.2%
[17]
  viability, T/C: 19.1%
[18]
  viability, T/C: 1.41%
[19]
  viability, T/C: 20.3%
[20]
  viability, T/C: 19.8%
[21]
  viability, T/C: 16.1%
[22]
  viability, T/C: 13.1%
[23]
  viability, T/C: 5.8%
[24]
  viability, T/C: 0.68%
[25]
  viability, T/C: 2.27%
[26]
  viability, T/C: 3.05%
[27]
  viability, T/C: 2.16%
[28]
  viability, T/C: 1.22%
[29]
  viability, T/C: 1.2%
[30]
  viability, T/C: 0.38%
[31]
  viability, T/C: 4.1%
[32]
  viability, T/C: 4.05%
[33]
  viability, T/C: 2.98%
[34]
  viability, T/C: 1.5%
[35]
  viability, T/C: 1.35%
[36]
  viability, T/C: 0.43%
[37]
  viability, T/C: 4.15%
[38]
  viability, T/C: 4.78%
[39]
  viability, T/C: 4.17%
[40]
  viability, T/C: 1.38%
[41]
  viability, T/C: 1.47%
[42]
  viability, T/C: 0.19%

## CC1COCCN1c1cc(C2(S(C)(=N)=O)CC2)nc(-c2ccnc3[nH]ccc23)n1 (stereo unspecified)
Compound 0.0316 µM
  viability, T/C: 103% and 106%
Compound 0.1 µM
  viability, T/C: 99.9% and 91.9%
Compound 0.316 µM
  viability, T/C: 90.5% and 90.1%
Compound 1 µM
  viability, T/C: 70.1% and 62.4%
Compound 3.16 µM
  viability, T/C: 37.1% and 40.2%
Compound 10 µM
  viability, T/C: 31.6% and 31%
Curve of compound
  IC50: 2070 nM and 1960 nM

## C=CC(=O)N1CCN(c2nc(=O)n(-c3c(C)ccnc3C(C)C)c3nc(-c4c(O)cccc4F)c(F)cc23)C(C)C1 (stereo unspecified) + CN1CCN(c2cc(C(=O)Nc3cc4cc(-c5cnn(C)c5)ccc4cn3)ccn2)CC1
[1]
  IC50: > 10000 nM
[2]
  IC50: < 31.6 nM
[3]
  IC50: < 31.6 nM
[4]
  IC50: < 31.6 nM
[5]
  IC50: < 31.6 nM
[6]
  IC50: < 31.6 nM
[7]
  viability, T/C: 63%
[8]
  viability, T/C: 64.3%
[9]
  viability, T/C: 55%
[10]
  viability, T/C: 63.9%
[11]
  viability, T/C: 60.1%
[12]
  viability, T/C: 67.9%
[13]
  viability, T/C: 51.3%
[14]
  viability, T/C: 45.8%
[15]
  viability, T/C: 39.8%
[16]
  viability, T/C: 57.4%
[17]
  viability, T/C: 51.5%
[18]
  viability, T/C: 46.6%
[19]
  viability, T/C: 17.9%
[20]
  viability, T/C: 17.9%
[21]
  viability, T/C: 16%
[22]
  viability, T/C: 18.2%
[23]
  viability, T/C: 17.4%
[24]
  viability, T/C: 22.6%
[25]
  viability, T/C: 2.53%
[26]
  viability, T/C: 3.03%
[27]
  viability, T/C: 3.22%
[28]
  viability, T/C: 3.64%
[29]
  viability, T/C: 5.21%
[30]
  viability, T/C: 5.85%
[31]
  viability, T/C: 2.77%
[32]
  viability, T/C: 2.98%
[33]
  viability, T/C: 3.49%
[34]
  viability, T/C: 3.29%
[35]
  viability, T/C: 5.91%
[36]
  viability, T/C: 5.6%
[37]
  viability, T/C: 3.45%
[38]
  viability, T/C: 3.36%
[39]
  viability, T/C: 3.83%
[40]
  viability, T/C: 3.24%
[41]
  viability, T/C: 4.22%
[42]
  viability, T/C: 4.53%
